What was measured:
Aβ1-40 = assay: Measurement of Aβ1-40 in culture medium of 7W WT APP751 CHO cells by ELISA; assay type: cell-based, Chinese hamster; conditions: for Aβ1-40 (% of control): CHO cells that overexpress APP751, zero = below the detection limit of the assay; for activity at 5 µM: Cricetulus griseus, Table 1, 5 μM test compound, CHO cells stably transfected with human APP751, culture medium, ELISA, control DMSO, 0 = no detectable amount
Aβ1-42 = assay: Measurement of Aβ1-42 in culture medium of 7W WT APP751 CHO cells by ELISA; assay type: cell-based, Chinese hamster; conditions: for Aβ1-42 (% of control): CHO cells that overexpress APP751, zero = below the detection limit of the assay; for activity at 5 µM: Cricetulus griseus, Table 1, 5 μM test compound, CHO cells stably transfected with human APP751, culture medium, ELISA, control DMSO, 0 = no detectable amount, read-out: Aβ1-42 (% of control)
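Note: 5 µM test compound but RI-coded compounds at 10 µM for 24 hours.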

Structure (SMILES) | Aβ1-40 (% of control) (Aβ1-40) | Aβ1-42 (% of control) (Aβ1-42) | activity at 5 µM (Aβ1-40) | activity at 5 µM (Aβ1-42)
CC1=C(C(=O)Nc2ccccc2)C(c2cccs2)C(C#N)=C(SCC(=O)Nc2cccc(Cl)c2C)N1 (stereo not shown) [RI_38] | 62.5 % of control | 103.4 % of control | – | –
COC(=O)C1=CN(Cc2ccc(OC)c(OC)c2)C=C(C(=O)OC)C1c1cccs1 [ST038115, methyl 1-[(3,4-dimethoxyphenyl)methyl]-5-(methoxycarbonyl)-4-(2-thienyl)-1,4-d ihydropyridine-3-carboxylate] | 42.45 % of control | 91 % of control | – | –
COc1ccc(C2C(C#N)=C(N)NC(C(C#N)C#N)=C2C#N)cc1OC (stereo not shown) [ST025482, 6-amino-2-(dicyanomethyl)-4-(3,4-dimethoxyphenyl)-1,4-dihydropyridine-3,5-dicarbonitrile] | 62.83 % of control | 45.1 % of control | – | –
CC(C)Oc1ccc(/C=c2\sc3n(c2=O)C(N)=C(C#N)C(c2ccc(OC(C)C)cc2)C=3C#N)cc1 (stereo not shown) [ST025026, 5-amino-7-[4-(methylethoxy)phenyl]-2-{[4-(methylethoxy)phenyl]methylene}-3-oxo-4,7-dihydro-1,3-thiazolidino[3,2-a]pyridine-6,8-dicarbonitrile] | 26.82 % of control | 0 % of control | – | –
CCOc1cccc(C2C(C(=O)OC)=CNC=C2C(=O)OC)c1 [ST052415, methyl 4-(3-ethoxyphenyl)-5-(methoxycarbonyl)-1,4-dihydropyridine-3-carboxylate] | 70.57 % of control | 72.15 % of control | – | –
CCc1cccc(NC(=O)CSC2=C(C#N)C(c3ccc(-c4ccccc4)s3)C(C(=O)Nc3ccccc3)=C(C)N2)c1 (stereo not shown) [RI_89] | 63.7 % of control | 55.1 % of control | – | –
CC1=C(C(=O)OC2CCCCC2)C(c2ccccc2Cl)C2=C(CC(C)(C)CC2=O)N1 (stereo not shown) [ST013235, cyclohexyl 4-(2-chlorophenyl)-2,7,7-trimethyl-5-oxo-1,4,6,7,8-pentahydroquinoline-3-carboxylate] | – | – | 0% | 43%
CC1=C(C(=O)OCCOc2ccccc2)C(c2ccc(C)cc2)C2=C(CC(C)(C)CC2=O)N1 (stereo not shown) [ST015095, 2-phenoxyethyl 2,7,7-trimethyl-4-(4-methylphenyl)-5-oxo-1,4,6,7,8-pentahydroquinoline-3-carboxylate] | – | – | 59.7% | 0%
COC(=O)C1=CN(CC2CCCO2)C=C(C(=O)OC)C1c1cccc(OC)c1OC (stereo not shown) [ST051459, methyl 4-(2,3-dimethoxyphenyl)-5-(methoxycarbonyl)-1-(oxolan-2-ylmethyl)-1,4-dihydropyridine-3-carboxylate] | 70.09 % of control | 85.96 % of control | – | –
COc1ccc(COC(=O)C2=C(C)NC3=C(C(=O)CC(C)(C)C3)C2c2cc3c(cc2[NH+]([O-])O)OCO3)cc1 (stereo not shown) [ST017054, (4-methoxyphenyl)methyl 2,7,7-trimethyl-4-(6-nitro(2H-benzo[d]1,3-dioxolan-5-yl))-5-oxo-1,4,6,7,8-pentahydroquinoline-3-carboxylate] | – | – | 46.5% | 9.54%
CCOC(=O)C1=C(N)n2c(s/c(=C/c3ccc(C(C)C)cc3)c2=O)=C(C(=O)OCC)C1c1ccc(C(C)C)cc1 (stereo not shown) [ST011764, ethyl 5-amino-6-(ethoxycarbonyl)-7-[4-(methylethyl)phenyl]-2-{[4-(methylethyl)phenyl]methylene}-3-oxo-4,7-dihydro-1,3-thiazolidino[3,2-a]pyridine-8-carboxylate] | 83.4 % of control | 70.37 % of control | – | –
CC1=C(C(=O)Nc2ccccc2)C(c2cccs2)C(C#N)=C(SCC(=O)Nc2ccc(C)cc2)N1 (stereo not shown) [RI_50] | 55.2 % of control | 38.2 % of control | – | –
CCOC(=O)C1=C(N)n2c(s/c(=C/c3ccccc3Cl)c2=O)=C(C#N)C1c1ccccc1Cl (stereo not shown) [ST215651, ethyl 5-amino-7-(2-chlorophenyl)-2-[(2-chlorophenyl)methylene]-8-cyano-3-oxo-4,7-dihydro-1,3-thiazolidino[3,2-a]pyridine-6-carboxylate] | 80.92 % of control | 42.3 % of control | – | –
CC1=C(C(=O)OCc2ccccc2)C(c2ccccc2)C2=C(CC(C)(C)CC2=O)N1 (stereo not shown) [ST013215, phenylmethyl 2,7,7-trimethyl-5-oxo-4-phenyl-1,4,6,7,8-pentahydroquinoline-3-carboxylate] | – | – | 0% | 88.6%
N#CC1=C(N)n2c(s/c(=C\c3cccc(Br)c3)c2=O)=C(C#N)C1c1cccc(Br)c1 (stereo not shown) [RI_96] | 71.3 % of control | 70.5 % of control | – | –
COC(=O)C1=C(C)NC2=C(C(=O)CC(c3ccc(OC)c(OC)c3)C2)C1c1cc(OC)c(OC)c(OC)c1 (stereo not shown) [ST024574, methyl 7-(3,4-dimethoxyphenyl)-2-methyl-5-oxo-4-(3,4,5-trimethoxyphenyl)-1,4,6,7,8-pentahydroquinoline-3-carboxylate] | – | – | 65.3% | 83.6%

Structure (SMILES) | Aβ1-40 (% of control) (Aβ1-40) | Aβ1-42 (% of control) (Aβ1-42) | activity at 5 µM (Aβ1-40) | activity at 5 µM (Aβ1-42)
CCOCCOC(=O)C1=C(C)NC2=C(C(=O)CCC2)C1c1ccc(OC(C)=O)cc1 (stereo not shown) [ST013435, 4-{3-[(2-ethoxyethyl)oxycarbonyl]-2-methyl-5-oxo-4-1,4,6,7,8-pentahydroquinolyl}phenyl acetate] | – | – | 64.7% | 70.1%
COC(=O)C1=C(N)n2c(s/c(=C/c3cccnc3)c2=O)=C(C(=O)OC)C1c1cccnc1 (stereo not shown) [ST011768, methyl 5-amino-6-(methoxycarbonyl)-3-oxo-7-(3-pyridyl)-2-(3-pyridylmethylene)-4,7-dihydro-1,3-thiazolidino[3,2-a]pyridine-8-carboxylate] | 42.71 % of control | 97.83 % of control | – | –
CCCCOC(=O)C1=C(C)NC2=C(C(=O)CC(C)(C)C2)C1c1cccc(I)c1 (stereo not shown) [ST056056, butyl 4-(3-iodophenyl)-2,7,7-trimethyl-5-oxo-1,4,6,7,8-pentahydroquinoline-3-carboxylate] | – | – | 6.56% | 12.3%
CCSCCOC(=O)C1=C(C)NC2=C(C(=O)CCC2)C1c1ccc(OCCO)c(OC)c1 (stereo not shown) [ST017113, 2-ethylthioethyl 4-[4-(2-hydroxyethoxy)-3-methoxyphenyl]-2-methyl-5-oxo-1,4,6,7,8-pentahydroquinoline-3-carboxylate] | – | – | 82.6% | 74.1%
CC1=C(C(=O)Nc2ccccc2)C(c2cccs2)C(C#N)=C(SCC(=O)NCCc2ccc(Br)cc2)N1 (stereo not shown) [RI_19] | 35.4 % of control | 44.4 % of control | – | –
COC(=O)C1=C(C)NC2=C(C(=O)CCC2)C1c1cc(OC)ccc1OC (stereo not shown) [ST013073, methyl 4-(2,5-dimethoxyphenyl)-2-methyl-5-oxo-1,4,6,7,8-pentahydroquinoline-3-carboxylate] | – | – | 49.5% | 93.2%
CCOc1cc(C2C(C(=O)OC(C)C)=C(C)NC3=C2C(=O)CCC3)ccc1O (stereo not shown) [ST015043, methylethyl 4-(3-ethoxy-4-hydroxyphenyl)-2-methyl-5-oxo-1,4,6,7,8-pentahydroquinoline-3-carboxylate] | – | – | 95.9% | 68.8%
COc1cc(OC)c(C2C(C(=O)OC3CCCC3)=C(C)NC3=C2C(=O)CC(c2cccs2)C3)cc1OC (stereo not shown) [ST051557, cyclopentyl 2-methyl-5-oxo-7-(2-thienyl)-4-(2,4,5-trimethoxyphenyl)-1,4,6,7,8-pentahydroquinoline-3-carboxylate] | – | – | 57.3% | 93.1%
CCCCOc1ccccc1C1C(C(=O)OCCc2ccccc2)=C(C)NC2=C1C(=O)CC(C)(C)C2 (stereo not shown) [ST014907, 2-phenylethyl 4-(2-butoxyphenyl)-2,7,7-trimethyl-5-oxo-1,4,6,7,8-pentahydroquinoline-3-carboxylate] | – | – | 34.6% | 83.5%
CCCOC(=O)C1=C(C)NC2=C(C(=O)CCC2)C1c1ccc(Br)cc1 (stereo not shown) [ST017259, propyl 4-(4-bromophenyl)-2-methyl-5-oxo-1,4,6,7,8-pentahydroquinoline-3-carboxylate] | – | – | 65.5% | 87%
COC(=O)C1=CN(CC2CCCO2)C=C(C(=O)OC)C1c1ccc(Cl)c(Cl)c1 (stereo not shown) [ST045237, methyl 4-(3,4-dichlorophenyl)-5-(methoxycarbonyl)-1-(oxolan-2-ylmethyl)-1,4-dihydropyridine-3-carboxylate] | 60.46 % of control | 50.77 % of control | – | –
CC1=C(C(=O)Nc2ccccc2)C(c2cccs2)C(C#N)=C(SCC(=O)Nc2cccc(Cl)c2)N1 (stereo not shown) [RI_69] | 89.1 % of control | 69.8 % of control | – | –
CC1=C(C(=O)OC(C)C)C(c2cccnc2)C2=C(CCCC2=O)N1 (stereo not shown) [ST013077, methylethyl 2-methyl-5-oxo-4-(3-pyridyl)-1,4,6,7,8-pentahydroquinoline-3-carboxylate] | – | – | 27.4% | 97.8%
COC(=O)C1=CNC=C(C(=O)OC)C1c1cccc(OCc2ccccc2)c1 [ST052273, methyl 5-(methoxycarbonyl)-4-[3-(phenylmethoxy)phenyl]-1,4-dihydropyridine-3-carboxylate] | 84.66 % of control | 57.92 % of control | – | –
CC1=C(C(=O)OCC(C)C)C(c2ccccc2F)C2=C(CC(c3cccs3)CC2=O)N1 (stereo not shown) [ST051566, 2-methylpropyl 4-(2-fluorophenyl)-2-methyl-5-oxo-7-(2-thienyl)-1,4,6,7,8-pentahydroquinoline-3-carboxylate] | – | – | 63.4% | 96.1%
COc1cc(C2C(C(=O)OCc3ccccc3)=C(C)NC3=C2C(=O)CCC3)cc(Br)c1O (stereo not shown) [ST013249, phenylmethyl 4-(3-bromo-4-hydroxy-5-methoxyphenyl)-2-methyl-5-oxo-1,4,6,7,8-pentahydroquinoline-3-carboxylate] | – | – | 0% | 68%

— patent US20100119599A1 (ARCHER PHARMACEUTICALS, INC., priority 2006, published 2010)
